Experimental findings from the supplement of paper PMC11061612 are described below.

The test system of experiment [1] is RERF-LC-KJ (Lung Adenocarcinoma). The experiment in a line: combination Emax (second highest fraction inhibited in the dose matrix, 72 h); higher = more inhibition; extreme values may be limits of the assay. The procedure, abridged: (§1)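 Cell lines in DMEM/F12 or RPMI with 10% FBS were plated in 1536-well plates, held 24 hours at 37°C, 5% CO2, then given two-drug dose matrices for 72 hours (DMSO typically 0.2%). Viability was read by CellTiter-Glo 2.0 luminescence and scaled as inhibition from 0 (vehicle wells) to 1 (blank wells). Combination Emax is the second-highest inhibition in the matrix; Bliss excess is observed combination effect minus expected EA + EB − EA·EB, EA and EB being single-agent effects.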

The subject of experiment [2] is PANC-02-03 (Pancreatic Carcinoma). The experiment is described as above. The method, boiled down:
as §1

Experiment [3] deals with AsPC-1 (Pancreatic Carcinoma). Described as above. The procedure, abridged:
as §1

Experiment [4] deals with SW684 (Other Solid Carcinomas). The experiment is described as above. The method, boiled down:
as §1

In experiment [5] the test system is HCC-44 (Lung Adenocarcinoma). Described as above. The procedure, abridged:
as §1

For experiment [6], the system named is HCC-44 (Lung Adenocarcinoma). Put plainly: Bliss excess, mean over the matrix (fraction); higher = more synergy. The procedure, abridged:
as §1

Take `NC1(C(=O)N[C@@H](CCO)c2ccc(Cl)cc2)CCN(c2ncnc3[nH]ccc23)CC1` [Capivasertib] + Cn1cnc2c(F)c(Nc3ccc(Br)cc3Cl)c(C(=O)NOCCO)cc21 [Selumetinib] (first compound max 10 µM, 7x7, partner max 10 µM): the “combination Emax” value in experiment [1] turned out to be 0.436; in experiment [2], 0.572; in experiment [3] it was 0.491; in experiment [4], 0.626; in experiment [5] it was 0.824. Moreover, the Bliss excess in experiment [6] came to 0.106.

For the compound `Cc1nc(Nc2ncc(C(=O)Nc3c(C)cccc3Cl)s2)cc(N2CCN(CCO)CC2)n1` [Dasatinib] + CC(=O)Nc1cccc(-n2c(=O)n(C3CC3)c(=O)c3c(Nc4ccc(I)cc4F)n(C)c(=O)c(C)c32)c1 [Trametinib] (first compound max 2 µM, 7x7, partner max 1 µM), the “combination Emax” value was found to be 0.436 in experiment [1]; 0.836 in experiment [2]; 0.612 in experiment [3]; 0.609 in experiment [4]; 0.955 in experiment [5]. In experiment [6], the Bliss excess is 0.0359.

With `COc1cc2ncnc(Nc3ccc(F)c(Cl)c3)c2cc1OCCCN1CCOCC1` [Gefitinib] + CC(C)n1c(=O)n(C)c2cnc3cc(F)c(-c4ccc(OCCCN5CCCCC5)nc4)cc3c21 [AZD1390] (first compound max 10 µM, 7x7, partner max 0.3 µM), the “combination Emax” value in experiment [1] worked out at 0.351; in experiment [2], 0.266; in experiment [3] it was 0.13; in experiment [4] it was 0.136; in experiment [5], 0.121. Moreover, the Bliss excess in experiment [6] was -0.0387.

With `CS(=O)(=O)CCNCc1ccc(-c2ccc3ncnc(Nc4ccc(OCc5cccc(F)c5)c(Cl)c4)c3c2)o1` [Lapatinib] + C[C@@H](Oc1cc(-c2cnn(C3CCNCC3)c2)cnc1N)c1c(Cl)ccc(F)c1Cl [Crizotinib] (first compound max 10 µM, 7x7, partner max 10 µM), the “combination Emax” value in experiment [1] amounted to 0.81; in experiment [2], 0.735; in experiment [3], 0.345; in experiment [4], 0.523; in experiment [5] it was 0.939. Also, the Bliss excess in experiment [6] was -0.0384.

On to `CC(=O)c1c(C)c2cnc(Nc3ccc(N4CCNCC4)cn3)nc2n(C2CCCC2)c1=O` [Palbociclib] + CC1(C)CCC(CN2CCN(c3ccc(C(=O)NS(=O)(=O)c4ccc(NCC5CCOCC5)c([N+](=O)[O-])c4)c(Oc4cnc5[nH]ccc5c4)c3)CC2)=C(c2ccc(Cl)cc2)C1 [Venetoclax] (first compound max 10 µM, 7x7, partner max 1 µM), for which the “combination Emax” value in experiment [1] is 0.117; in experiment [2], 0.148; in experiment [3], 0.104; in experiment [4] it was 0.147; in experiment [5] it was 0.0628. Also, the Bliss excess in experiment [6] is -0.0374.

`CC(=O)c1c(C)c2cnc(Nc3ccc(N4CCNCC4)cn3)nc2n(C2CCCC2)c1=O` [Palbociclib] + Cc1c2c(nn1C)CSCc1cc(n(C)n1)CSc1cc(c3ccccc3c1)OCCCc1c(C(=O)O)n(C)c3c-2c(Cl)ccc13 [AZD5991] (first compound max 10 µM, 7x7, partner max 1 µM): the “combination Emax” value was 0.288 in experiment [1]; 0.182 in experiment [2]; 0.199 in experiment [3]; 0.335 in experiment [4]; 0.169 in experiment [5]. In experiment [6], the Bliss excess is -0.0224.

In the case of `CC(=O)c1c(C)c2cnc(Nc3ccc(N4CCNCC4)cn3)nc2n(C2CCCC2)c1=O` [Palbociclib] + Cn1cnc2c(F)c(Nc3ccc(Br)cc3Cl)c(C(=O)NOCCO)cc21 [Selumetinib] (first compound max 10 µM, 7x7, partner max 10 µM), the “combination Emax” value in experiment [1] was 0.197; in experiment [2] it was 0.475; in experiment [3], 0.386; in experiment [4], 0.292; in experiment [5], 0.426. Moreover, in experiment [6], the Bliss excess is 0.0332.

For `C[C@@H](c1ccc2nccn2c1)n1nnc2ncc(-c3cnn(C)c3)nc21` [Savolitinib] + CC1(C)CCC(CN2CCN(c3ccc(C(=O)NS(=O)(=O)c4ccc(NCC5CCOCC5)c([N+](=O)[O-])c4)c(Oc4cnc5[nH]ccc5c4)c3)CC2)=C(c2ccc(Cl)cc2)C1 [Venetoclax] (first compound max 1 µM, 7x7, partner max 1 µM), the “combination Emax” value in experiment [1] came to 0.15; in experiment [2] it was 0.157; in experiment [3], 0.107; in experiment [4], 0.231; in experiment [5], 0.148. Moreover, in experiment [6], the Bliss excess is -0.02.

For the compound `C[C@@H](c1ccc2nccn2c1)n1nnc2ncc(-c3cnn(C)c3)nc21` [Savolitinib] + Cc1c2c(nn1C)CSCc1cc(n(C)n1)CSc1cc(c3ccccc3c1)OCCCc1c(C(=O)O)n(C)c3c-2c(Cl)ccc13 [AZD5991] (first compound max 1 µM, 7x7, partner max 1 µM), the “combination Emax” value in experiment [1] is 0.301; in experiment [2], 0.13; in experiment [3], 0.184; in experiment [4], 0.161; in experiment [5], 0.0929. The Bliss excess in experiment [6] was -0.0335.

`Cn1cnc2c(F)c(Nc3ccc(Br)cc3Cl)c(C(=O)NOCCO)cc21` [Selumetinib] + C=CCn1c(=O)c2cnc(Nc3ccc(N4CCN(C)CC4)cc3)nc2n1-c1cccc(C(C)(C)O)n1 [AZD1775] (first compound max 10 µM, partner max 1 µM): the “combination Emax” value amounted to 0.401 in experiment [1]; 0.572 in experiment [2]; 0.437 in experiment [3]; 0.152 in experiment [4]; 0.64 in experiment [5]. In addition, the Bliss excess in experiment [6] is -0.0088.

Turning to `Cn1cnc2c(F)c(Nc3ccc(Br)cc3Cl)c(C(=O)NOCCO)cc21` [Selumetinib] + CC(C)n1c(=O)n(C)c2cnc3cc(F)c(-c4ccc(OCCCN5CCCCC5)nc4)cc3c21 [AZD1390] (first compound max 10 µM, 7x7, partner max 0.3 µM), the “combination Emax” value amounted to 0.2 in experiment [1]; 0.414 in experiment [2]; 0.357 in experiment [3]; 0.152 in experiment [4]; 0.396 in experiment [5]. Besides, the Bliss excess in experiment [6] is -0.0225.

On to `Cn1cnc2c(F)c(Nc3ccc(Br)cc3Cl)c(C(=O)NOCCO)cc21` [Selumetinib] + CCN(CCO)CCCOc1ccc2c(Nc3cc(CC(=O)Nc4cccc(F)c4)[nH]n3)ncnc2c1 [AZD2811] (first compound max 10 µM, 7x7, partner max 1 µM), for which the “combination Emax” value in experiment [1] worked out at 0.289; in experiment [2], 0.475; in experiment [3] it was 0.443; in experiment [4] it was 0.277; in experiment [5] it was 0.528. In addition, in experiment [6], the Bliss excess stood at 0.0067.

For `Cn1cnc2c(F)c(Nc3ccc(Br)cc3Cl)c(C(=O)NOCCO)cc21` [Selumetinib] + C[C@@H]1COCCN1C2=NC(=NC(=C2)C3(CC3)[S@](=N)(=O)C)C4=C5C=CNC5=NC=C4 [AZD6738] (first compound max 10 µM, 7x7, partner max 10 µM), the “combination Emax” value in experiment [1] worked out at 0.312; in experiment [2] it was 0.566; in experiment [3] it was 0.435; in experiment [4] it was 0.265; in experiment [5], 0.503. Moreover, the Bliss excess in experiment [6] is -0.034.
